Here are results for 14 compounds from article PMC6273578, “Design, Synthesis and Biological Evaluation of Benzohydrazide Derivatives Containing Dihydropyrazoles as Potential EGFR Kinase Inhibitors” (Molecules, 2016).

The test system of one series is HepG2 cells. Put plainly: MTT antiproliferative assay, HepG2. The series is classed as cell-based, human. The note with it: Homo sapiens, read-out: In vitro antiproliferative activity IC50, HepG2. The protocol: (§1) IC50 values of the test compounds against A549, MCF-7, Hela and HepG2 cells were obtained from State Key Laboratory of Pharmaceutical Biotechnology, Nanjing University, and were determined by a standard (MTT)-based colorimetric assay (Beyotime Inst. Biotech., Nanjing, China). Tumor cell lines were grown to mid-log phase and then diluted to […] making sure they were seeded in 96-well plates (Philas, Nanjing, China) at a density of 5 × 10^3–1 × 10^4 cells per well. The outer wells containing 1 × PBS solution of the plate are not used for the assay to avoid the possibility of edge effects. The plate was incubated at 37 °C in a 5% CO2 incubator in DMEM containing 10% fetal bovine serum (FBS, Gibco, Waltham, MA, USA) for 24 h. Then, we added a 100-μL series concentration of drug-containing medium into the wells to maintain the final concentration of drug as 100, 10, 1 and 0.1 μmol/L. After 12 h, cell survival was determined by the addition of a MTT (3-(4,5-dimethylthiazol-2-yl)-2,5-diphenyl trtrazolium bromide) solution (10 μL of 5 mg/mL MTT in 1 × PBS). We waited for 4 h proliferation, discarded the medium and quickly added 150 μL DMSO per well, shaking the plates well for 10 min to ensure complete dissolution. Optical absorbance was measured at 570 nm on a microplate reader (Bio-Rad, Hercules, CA, USA). Survival ratios are expressed in percentages with respect to untreated cells. The experiments were replicated at least three times to verify the methodology reproducibility when using the above-mentioned conditions.
For orientation: Formazan colour is commonly taken as a measure of viable cells.

In a further series the test system is HeLa cells. Put plainly: MTT antiproliferative assay, HeLa. The series is classed as cell-based, human. To be noted: Homo sapiens, read-out: In vitro antiproliferative activity IC50, HeLa. The protocol: as §1
In a further series the test system is A549 cells. Put plainly: MTT antiproliferative assay, A549. The series is classed as cell-based, human. The note with it: Homo sapiens, read-out: In vitro antiproliferative activity IC50, A549. As to the method:
as §1

The next series deals with MCF-7 cells. Put plainly: MTT antiproliferative assay, MCF-7. The series is classed as cell-based, human. To be noted: Homo sapiens, MCF7, read-out: In vitro antiproliferative activity IC50, MCF-7. The protocol: as §1
A short description of series [1]: Cytotoxicity test (MTT) on 293T cells. The note with it: human, 293T human kidney epithelial cells. As to the method:
The cytotoxic activity in vitro was measured by the colorimetric MTT assay. […] For the cytotoxicity assay, 20 μL of MTT (5 mg/mL) was added per well 4 h before the end of the incubation. After removing the supernatant, 200 μL DMSO was added to dissolve the formazan crystals. The absorbance at λ 570 nm was read on an LX300 Epson Diagnostic microplate reader, untreated cells were used as negative controls.

In series [2] the target is epidermal growth factor receptor (EGFR) (Homo sapiens, UniProt P00533). Put plainly: EGFR kinase inhibition, solid-phase ELISA assay. On the technique in general: In an ELISA, binding on a coated surface is turned into a signal by an enzyme label.
Sequence of epidermal growth factor receptor (EGFR) (P00533 25-1210): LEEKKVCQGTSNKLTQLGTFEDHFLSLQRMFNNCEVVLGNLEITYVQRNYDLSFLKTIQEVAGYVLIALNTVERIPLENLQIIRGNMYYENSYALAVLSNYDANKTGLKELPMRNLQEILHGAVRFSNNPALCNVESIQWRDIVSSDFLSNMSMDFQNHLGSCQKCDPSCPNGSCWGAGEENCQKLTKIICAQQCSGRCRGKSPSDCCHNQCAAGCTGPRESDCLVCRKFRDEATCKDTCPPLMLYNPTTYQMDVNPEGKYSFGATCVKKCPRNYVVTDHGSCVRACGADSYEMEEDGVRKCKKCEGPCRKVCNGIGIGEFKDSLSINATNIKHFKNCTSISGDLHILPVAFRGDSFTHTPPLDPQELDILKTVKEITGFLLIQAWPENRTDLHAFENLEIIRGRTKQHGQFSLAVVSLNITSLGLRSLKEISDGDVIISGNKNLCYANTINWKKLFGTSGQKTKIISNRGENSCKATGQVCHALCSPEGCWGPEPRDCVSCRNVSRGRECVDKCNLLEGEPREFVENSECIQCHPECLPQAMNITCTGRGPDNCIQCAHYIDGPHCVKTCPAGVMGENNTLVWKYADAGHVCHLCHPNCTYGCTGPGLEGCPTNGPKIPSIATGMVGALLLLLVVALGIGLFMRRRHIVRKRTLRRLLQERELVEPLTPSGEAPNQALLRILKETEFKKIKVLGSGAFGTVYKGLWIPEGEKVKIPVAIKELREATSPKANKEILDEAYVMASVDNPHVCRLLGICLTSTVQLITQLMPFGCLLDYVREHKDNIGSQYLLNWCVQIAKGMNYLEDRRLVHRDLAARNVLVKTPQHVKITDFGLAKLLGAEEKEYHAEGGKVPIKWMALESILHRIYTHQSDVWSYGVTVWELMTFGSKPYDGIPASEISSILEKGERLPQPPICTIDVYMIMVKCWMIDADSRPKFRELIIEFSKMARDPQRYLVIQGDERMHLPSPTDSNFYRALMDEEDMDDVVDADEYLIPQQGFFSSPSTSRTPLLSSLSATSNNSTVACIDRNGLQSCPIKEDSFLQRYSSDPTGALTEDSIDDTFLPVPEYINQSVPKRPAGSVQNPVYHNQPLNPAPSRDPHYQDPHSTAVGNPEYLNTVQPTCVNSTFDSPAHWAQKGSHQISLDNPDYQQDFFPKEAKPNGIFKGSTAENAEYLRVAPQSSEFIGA

`COc1ccc(/C=N/NC(=O)c2ccc(N3N=C(c4ccccc4F)CC3c3ccc4ccccc4c3)cc2)cc1` (centres unmarked) [Compound H25, (E)-4-(3-(2-Fluorophenyl)-5-(naphthalen-2-yl)-4,5-dihydro-1H-pyrazol-1-yl)-N′-(4-methoxybenzylidene)-benzohydrazide] yielded a melting point of 244 to 246 °C. In addition, in the series with HepG2 cells, the IC50 came to 71.1 µM. Moreover, the IC50 in the series on HeLa cells amounted to 61.9 µM. In addition, the IC50 in the series with A549 cells turned out to be 48.6 µM. Further, in the series on MCF-7 cells, the IC50 was determined as 65.5 µM. In addition, the CC50 at 24 h in series [1] was found to be 85.6 µM. The 50% inhibitory concentration (IC50) in series [2] stood at 15.3 µM.

Turning to `COc1cccc(/C=N/NC(=O)c2ccc(N3N=C(c4ccc(Cl)cc4)CC3c3ccc4ccccc4c3)cc2)c1` (centres unmarked) [Compound H14, (E)-4-(3-(4-Chlorophenyl)-5-(naphthalen-2-yl)-4,5-dihydro-1H-pyrazol-1-yl)-N′-(3-methoxybenzylidene)-benzohydrazide], the melting point lay within 236 to 238 °C. The IC50 in the series on HepG2 cells was found to be 40.2 µM. For the same compound, the IC50 in the series on HeLa cells came out at 37.4 µM. For the same compound, the IC50 in the series with A549 cells amounted to 30.1 µM. Besides, the IC50 with MCF-7 cells is 42.5 µM. In series [1], this compound had a cytotoxic concentration (CC50) at 24 h of 90.1 µM. The midpoint of inhibition in series [2], the IC50, lay at 10.3 µM.

In turn, `CCOc1ccc(C2=NN(c3ccc(C(=O)N/N=C/c4ccc(OC)cc4)cc3)C(c3ccc4ccccc4c3)C2)cc1` (centres unmarked) [Compound H24, (E)-4-(3-(4-Ethoxyphenyl)-5-(naphthalen-2-yl)-4,5-dihydro-1H-pyrazol-1-yl)-N′-(4-methoxybenzylidene)-benzohydrazide] registered a melting point of 237 to 239 °C. In addition, the IC50 in the series on HepG2 cells was 18.6 µM. Moreover, in the series on HeLa cells, the IC50 amounted to 15.3 µM. Besides, in the series with A549 cells, the IC50 turned out to be 9.92 µM. Also, the IC50 with MCF-7 cells came to 13.8 µM. In series [1], this compound returned a CC50 at 24 h of 81.3 µM. Besides, in series [2], the IC50 came to 6.65 µM.

As to `C#Cc1cccc(Nc2ncnc3cc(OCCOC)c(OCCOC)cc23)c1` [Erlotinib, reference compound], the IC50 in the series on HepG2 cells was found to be 0.1 µM; with HeLa cells it was 0.17 µM; in the series on A549 cells it was 0.2 µM; in the series with MCF-7 cells, 0.12 µM.

For `COc1cccc(/C=N/NC(=O)c2ccc(N3N=C(c4cc(F)cc(F)c4)CC3c3ccc4ccccc4c3)cc2)c1` (centres unmarked) [Compound H12, (E)-4-(3-(3,5-Difluorophenyl)-5-(naphthalen-2-yl)-4,5-dihydro-1H-pyrazol-1-yl)-N′-(3-methoxybenzylidene) benzohydrazide], the melting point lay within 225 to 227 °C. In the series with HepG2 cells, the IC50 is 52.3 µM. Further, the IC50 in the series on HeLa cells amounted to 50.3 µM. Besides, the IC50 in the series with A549 cells is 41.5 µM. Also, in the series on MCF-7 cells, the IC50 turned out to be 55.6 µM. In addition, the CC50 at 24 h in series [1] is 80.2 µM. It took 12.8 µM to reach half-maximal inhibition in series [2] (IC50).

`COc1cccc(/C=N/NC(=O)c2ccc(N3N=C(c4ccc(F)cc4)CC3c3ccc4ccccc4c3)cc2)c1` (centres unmarked) [Compound H11, (E)-4-(3-(4-Fluorophenyl)-5-(naphthalen-2-yl)-4,5-dihydro-1H-pyrazol-1-yl)-N′-(3-methoxybenzylidene)-benzohydrazide] displayed a melting point of 235 to 237 °C. Further, the IC50 in the series on HepG2 cells stood at 60.9 µM. The IC50 in the series on HeLa cells was found to be 56.2 µM. In addition, the IC50 with A549 cells worked out at 45.2 µM. The IC50 with MCF-7 cells was found to be 60.8 µM. Half-maximal cytotoxicity in series [1] (CC50 at 24 h) was put at 86.5 µM. In series [2], this compound returned an IC50 of 14.1 µM.

Consider `COc1ccc(/C=N/NC(=O)c2ccc(N3N=C(c4ccc(F)cc4)CC3c3ccc4ccccc4c3)cc2)cc1` (centres unmarked) [Compound H27, (E)-4-(3-(4-Fluorophenyl)-5-(naphthalen-2-yl)-4,5-dihydro-1H-pyrazol-1-yl)-N'-(4-methoxybenzylidene)-benzohydrazide], for which the melting point lay within 236 to 238 °C. Also, the IC50 in the series with HepG2 cells is 62.9 µM. Besides, the IC50 with HeLa cells turned out to be 54.2 µM. Also, the IC50 in the series with A549 cells amounted to 44.1 µM. The concentration for half-maximal inhibition (IC50) in the series on MCF-7 cells turned out to be 59 µM. This compound also registered a CC50 at 24 h in series [1] of 89.4 µM. This compound also displayed a 50% inhibitory concentration (IC50) in series [2] of 13.8 µM.

`COc1ccc(/C=N/NC(=O)c2ccc(N3N=C(c4ccc(Cl)c(Cl)c4)CC3c3ccc4ccccc4c3)cc2)cc1` (centres unmarked) [Compound H31, (E)-4-(3-(3,4-Dichlorophenyl)-5-(naphthalen-2-yl)-4,5-dihydro-1H-pyrazol-1-yl)-N'-(4-methoxy-benzylidene)benzohydrazide] showed a melting point of 243 to 245 °C. For the same compound, the IC50 in the series on HepG2 cells came to 36.3 µM. For the same compound, the IC50 with HeLa cells was found to be 31.8 µM. Further, the half-inhibitory concentration (IC50) in the series with A549 cells stood at 24.8 µM. In addition, in the series with MCF-7 cells, the half-maximal inhibitory concentration (IC50) worked out at 34.4 µM. Moreover, the CC50 at 24 h in series [1] was 84.8 µM. In series [2], this compound came in with an IC50 of 9.66 µM.

The compound `COc1cccc(/C=N/NC(=O)c2ccc(N3N=C(c4ccc(Br)cc4)CC3c3ccc4ccccc4c3)cc2)c1` (centres unmarked) [Compound H16, (E)-4-(3-(4-Bromophenyl)-5-(naphthalen-2-yl)-4,5-dihydro-1H-pyrazol-1-yl)-N′-(3-methoxybenzylidene)-benzohydrazide] had a melting point of 245 to 247 °C. In the series on HepG2 cells, the IC50 came out at 34.2 µM. Besides, the IC50 in the series on HeLa cells was 26.5 µM. The IC50 in the series on A549 cells came to 21.8 µM. Further, in the series on MCF-7 cells, the IC50 came out at 31.9 µM. For the same compound, in series [1], the cytotoxic concentration (CC50) at 24 h was 81.9 µM. The IC50 in series [2] stood at 9.01 µM.

Take `COc1ccc(/C=N/NC(=O)c2ccc(N3N=C(c4cccc(Cl)c4)CC3c3ccc4ccccc4c3)cc2)cc1` (centres unmarked) [Compound H29, (E)-4-(3-(3-Chlorophenyl)-5-(naphthalen-2-yl)-4,5-dihydro-1H-pyrazol-1-yl)-N′-(4-methoxybenzylidene)-benzohydrazide]: the melting point was 241 to 243 °C. Moreover, in the series on HepG2 cells, the IC50 amounted to 41 µM. Besides, the IC50 in the series with HeLa cells worked out at 43 µM. Further, in the series with A549 cells, the IC50 stood at 33.2 µM. For the same compound, the IC50 in the series with MCF-7 cells is 50.9 µM. The compound further registered a CC50 at 24 h in series [1] of 94.4 µM. The compound further displayed an IC50 in series [2] of 11.2 µM.

Compound `COc1cccc(/C=N/NC(=O)c2ccc(N3N=C(c4ccccc4F)CC3c3ccc4ccccc4c3)cc2)c1` (centres unmarked) [Compound H9, (E)-4-(3-(2-Fluorophenyl)-5-(naphthalen-2-yl)-4,5-dihydro-1H-pyrazol-1-yl)-N′-(3-methoxybenzylidene)-benzohydrazide] showed a melting point of 235 to 237 °C. Besides, the IC50 with HepG2 cells was found to be 76.5 µM. In the series with HeLa cells, the IC50 was 63.8 µM. In addition, the IC50 in the series with A549 cells came to 50.6 µM. Moreover, in the series with MCF-7 cells, the IC50 is 70.4 µM. In series [1], the CC50 at 24 h is 83.4 µM. Further, it took 16.2 µM to reach half-maximal inhibition in series [2] (IC50).

Compound `COc1ccc(/C=N/NC(=O)c2ccc(N3N=C(c4cccc(F)c4)CC3c3ccc4ccccc4c3)cc2)cc1` (centres unmarked) [Compound H26, (E)-4-(3-(3-Fluorophenyl)-5-(naphthalen-2-yl)-4,5-dihydro-1H-pyrazol-1-yl)-N′-(4-methoxybenzylidene)-benzohydrazide] displayed a melting point of 240 to 242 °C. Further, the half-maximal inhibitory concentration (IC50) with HepG2 cells is 80.1 µM. Also, in the series with HeLa cells, the IC50 was 85.2 µM. Further, the IC50 in the series on A549 cells was 56.4 µM. For the same compound, in the series on MCF-7 cells, the IC50 was 77.5 µM. This compound had a CC50 at 24 h in series [1] of 94.3 µM. In series [2], the IC50 was found to be 18.6 µM.

As for `COc1cccc(/C=N/NC(=O)c2ccc(N3N=C(c4cccc(F)c4)CC3c3ccc4ccccc4c3)cc2)c1` (centres unmarked) [Compound H10, (E)-4-(3-(3-Fluorophenyl)-5-(naphthalen-2-yl)-4,5-dihydro-1H-pyrazol-1-yl)-N′-(3-methoxybenzylidene)-benzohydrazide], the melting point is 241 to 243 °C. In the series on HepG2 cells, the IC50 stood at 92.5 µM. In addition, the IC50 in the series with HeLa cells worked out at 84.1 µM. In addition, the IC50 in the series on A549 cells was determined as 58.6 µM. In addition, the IC50 in the series with MCF-7 cells amounted to 80.1 µM. Further, in series [1], the CC50 at 24 h was 95.8 µM. Also, 20 µM corresponded to half-maximal inhibition in series [2] (IC50).

Regarding `CCOc1ccc(C2=NN(c3ccc(C(=O)N/N=C/c4cccc(OC)c4)cc3)C(c3ccc4ccccc4c3)C2)cc1` (centres unmarked) [Compound H8, (E)-4-(3-(4-Ethoxyphenyl)-5-(naphthalen-2-yl)-4,5-dihydro-1H-pyrazol-1-yl)-N′-(3-methoxybenzylidene)-benzohydrazide], the melting point was in the range of 233 to 235 °C. Besides, in the series on HepG2 cells, the IC50 was determined as 19.8 µM. Moreover, in the series with HeLa cells, the IC50 was found to be 17.1 µM. The IC50 in the series on A549 cells amounted to 10.7 µM. The half-maximal inhibitory concentration (IC50) in the series on MCF-7 cells was determined as 15.9 µM. In series [1], this compound displayed a cytotoxic concentration (CC50) at 24 h of 79.7 µM. This compound gave an IC50 in series [2] of 7.2 µM.

For orientation: IC50 means the midpoint of a concentration-inhibition curve. Broadly, the melting point is the temperature of the solid-liquid transition. As usually defined, the CC50 is the concentration giving 50% cytotoxicity. A higher CC50 goes with lower toxicity to the cells.
